Experimental findings from patent US20100269215A1 (SNU R&DB Foundation, priority 2006, published 2010) are described below.

In one data set the test system is TflA protein. The experiment in a line: Degradation of toxoflavin and its derivatives by TflA protein (TLC enzyme analysis). It counts as biochemical, Paenibacillus polymyxa JH2. The note with it: within given time; see FIG. 8. The method, then:
5 μM TflA protein, 10 μM MnCl2 and 5 mM DTT (dithiothreitol) were added to analysis buffer (50 mM sodium phosphate (pH 6.5)) to give 200 μl mixture and the reaction was carried out at 25 °C. […] After 10 min of the reaction, 200 μl of chloroform was added to stop the reaction. The chloroform layer was dried completely, then 10 μl of 100% methanol was added. An aliquot taken from the reaction mixture comprising methanol was applied on a TLC plate using pipette. The resulting plate was placed in TLC chamber containing mixed solvents of chloroform and methanol (95:5, V:V) at room temperature. TLC was visualized under UV illuminator (254 nm and 365 nm).

In data set [1] the test system is leaves of transgenic T3 rice plant with tflA gene. The experiment in a line: Toxoflavin treatment of leaf pieces, transgenic T3 rice plant expressing tflA. It counts as in vivo. To be noted: 0, 25, 50 or 100 μM toxoflavin, 48 hrs, under light. The method, then:
(§1) Thus, the experiment of the present invention was carried out under light.

The test system of data set [2] is rice callus transformed with pCamLA vector. Briefly: Selection with toxoflavin of rice callus transformed with pCamLA. It counts as cell-based.
Data set [3] deals with Arabidopsis Col-0, transgenic organisms with tflA. Briefly: Photo-bleaching test, transgenic Arabidopsis. To be noted: FIG. 24. It counts as in vivo, Arabidopsis thaliana. The text has this: (§2) Such results correspond to the result of PCR described above.
Another data set relates to transgenic organisms. The experiment in a line: Photo-bleaching test, transgenic Arabidopsis. It counts as in vivo, Arabidopsis thaliana. The note with it: transgenic organisms selected for the test; FIG. 24.
Description: as §2

Data set [4] has as its system rice callus transformed with pCamLA vector. Briefly: Survival of rice callus under selection with toxoflavin, pCamLA. It counts as cell-based.
Data set [5] concerns rice callus transformed with pTflA vector. The experiment in a line: Survival of rice callus under selection with toxoflavin, pTflA. It counts as cell-based.
Data set [6] concerns Arabidopsis Col-0, non-transgenic organisms. Briefly: Photo-bleaching test, non-transgenic Arabidopsis. It counts as in vivo, Arabidopsis thaliana.
Description: as §2

The test system of another data set is Arabidopsis Col-0. The experiment in a line: Photo-bleaching test, non-transgenic Arabidopsis. It counts as in vivo, Arabidopsis thaliana.
Description: as §2

Data set [7] deals with non-transgenic organisms (Arabidopsis Col-0). The experiment in a line: Seeds on MS plate containing toxoflavin, non-transgenic organisms. It counts as in vivo, Arabidopsis thaliana. To be noted: media comprising 20 uM toxoflavin; ten days.
Data set [8] deals with wild rice leaves (Dongjinbyeo wild-type plant). Briefly: Toxoflavin treatment of leaf pieces, wild-type rice. It counts as in vivo. The note with it: 0, 25, 50 or 100 μM toxoflavin, 48 hrs, under light; seen 40 hrs after treatment. How it is done:
as §1

Another data set deals with leaves of wild rice. Briefly: Toxoflavin treatment of cut rice leaves, wild type. To be noted: toxoflavin 0, 25, 50 or 100 μM, under light; 40 hrs after the treatment. How it is done: as §1
For data set [9], the system named is Arabidopsis Col-0, non-transgenic organisms. The experiment in a line: Germination and growth on toxoflavin medium, non-transgenic Arabidopsis. It counts as in vivo, Arabidopsis thaliana. The note with it: 20 uM toxoflavin.
For data set [10], the system named is leaves of the transgenic plants to which tflA gene has been introduced. The experiment in a line: Toxoflavin treatment of cut rice leaves, transgenic T3 plants. To be noted: toxoflavin 0, 25, 50 or 100 μM, under light, 48 hrs. The method, then: as §1
The test system of data set [11] is transgenic plants to which the toxoflavin-resistant gene has been incorporated. Briefly: Seeds on MS plate containing toxoflavin, transgenic plants. It counts as in vivo, Arabidopsis thaliana. The note with it: media comprising 20 uM toxoflavin; ten days. The method, then:
Detailed method for the transformation is described below. • 1. […] 0.03% silwet was added to the suspension. • 4. […] The plants were wrapped with a plastic bag. Bags were removed two days later.
Roots were also growing well.

Data set [12] has as its system rice callus transformed with pTflA vector. The experiment in a line: Selection with toxoflavin of rice callus transformed with pTflA. It counts as cell-based.
The subject of data set [13] is Cn1ncnc2c(=O)n(C)c(=O)nc1-2. Briefly: purified protein, by the assay type. The note with it: other: toxoflavin 80-200 μM, 50 mM sodium phosphate pH 6.5, MnCl2 and DTT, Lineweaver-Burk plot.
Description: Each of experimental points is a mean value that is calculated from data obtained from at least of three measurements.
[14] abbreviates: toxoflavin 5 ug/ml, selection before redifferentiation, FIG. 18.
Where [15] appears, read: toxoflavin 5 ug/ml, before redifferentiation.
Setting [16] is: toxoflavin 7.5 ug/ml, four weeks after placement on redifferentiation medium.
The mark [17] stands for this setting: various concentrations, even at low concentration.

Turning to 4,8-dihydrotoxoflavin, the “degradation by TflA protein” value in the data set with TflA protein was “completely degraded”.
On to `CC1=NN(C)c2[nH]c(=O)n(C)c(=O)c2N1` [3-methyl 4,8-dihydrotoxoflavin], for which the “degradation by TflA protein” value in the data set with TflA protein is reported as “partially degraded”.
On to `Cc1n[nH]c2nc(=O)n(C)c(=O)c-2n1` [3-methylreumycin], for which the “degradation by TflA protein” value with TflA protein is given as “completely degraded”.
On the same count and under the same terms, the value for `Cc1nc2c(=O)n(C)c(=O)nc-2n(C)n1` [3-methyltoxoflavin] was “completely degraded”; that for `Cn1c(=O)nc2[nH]nc(-c3ccccc3)nc-2c1=O` [3-phenylreumycin] was “not degraded at all”; that for `Cn1nc(-c2ccccc2)nc2c(=O)n(C)c(=O)nc1-2` [3-phenyltoxoflavin] was “not degraded at all”.
The same measure, in the same setting: the same measure for `O=c1[nH]c(=O)c2cc3ccccc3nc2[nH]1` [5-deazaflavin]: “not degraded at all”; for `Cn1c(=O)c2ncnnc2n(C)c1=O` [fervenulin]: “partially degraded”; for `Cn1c(=O)[nH]c2nncnc2c1=O` [reumycin]: “partially degraded”.
`Cn1ncnc2c(=O)n(C)c(=O)nc1-2` [toxoflavin]: the discoloration of leaves result in data set [1] is reported as “no such discoloration was observed”; in [8], “discoloration due to the toxin started to show up”; with leaves of wild rice, “discoloration due to the toxin started to show up”; in [10], “no such discoloration was observed”. In addition, the survival of callus in [2] (setting [14]) is recorded as “most of the callus died out”; in [2] (toxoflavin 7.5 ug/ml, four weeks after placement on medium for redifferentiation, FIG. 19), “most of the callus died out”; in data set [4] (setting [15]), “most of the callus died out”; in data set [4] (setting [16]), “most of the callus died out”; in data set [5] (setting [15]) it was “only a part of the callus died out”; in data set [5] (setting [16]), “the callus was redifferentiated normally”. In addition, the survival of callus is “only a part of the callus died out” in [12] (setting [14]) and “the callus was redifferentiated normally” in data set [12] (toxoflavin 7.5 ug/ml, four weeks after placement on medium for redifferentiation, FIG. 20). In addition, in the data set on TflA protein, the “degradation by TflA protein” value is “completely degraded”. Moreover, the photo-bleaching result in [3] was “photo-bleaching was not observed”; with transgenic organisms it was “photo-bleaching was not observed”; in data set [6] (bleaching test, FIG. 24), “the bleaching occurred”; in the data set on Arabidopsis Col-0 (non-transgenic organisms, FIG. 24), “the bleaching occurred”. In addition, the bleaching effect entry in data set [6] (setting [17]) is given as “even at low concentration toxoflavin exerts a bleaching effect”. Further, the “bleaching effect on the plant” value with Arabidopsis Col-0 (setting [17]) is given as “exerts a bleaching effect”. For the same compound, the “germination and root growth” value in data set [7] is reported as “germination did not occur for most of the non-transgenic organisms”. In addition, in [9], the germination result is “germination did not occur for most of the non-transgenic organisms”. The “root growth where germination occurred” value in data set [9] is recorded as “root growth was not normal”. Besides, the growth entry in data set [11] was “show normal growth”.
For the compound “Paenibacillus polymyxa JH2 TflA protein, wild type, N-terminal His-tagged (His-TflA), SEQ ID NO: 2 (Paenibacillus polymyxa)”, in data set [13], the Km was 69.72 µM.

By Km is commonly meant the substrate concentration at which the rate is half of its maximum.
